# Counter-ions that a name gives are not always drawn.
# Target: T1, human H1 receptor (Homo sapiens, UniProt P35367)
# T1 construct: purchased Euroscreen SA, Brussels, Belgium ES-390-M; host or cells: CHO-K1 cells (membranes)
# Assay: Histamine H1 receptor binding, competition displacement of [3H]-pyrilamine
# Conditions: displacement of 1 nM [3H]-pyrilamine; membranes from recombinant CHO-K1 cells expressing the human H1 receptor; 1 hour at room temperature; read-out: H1 pKi/[1328_S] (converted)
# T1 sequence (P35367 whole entry): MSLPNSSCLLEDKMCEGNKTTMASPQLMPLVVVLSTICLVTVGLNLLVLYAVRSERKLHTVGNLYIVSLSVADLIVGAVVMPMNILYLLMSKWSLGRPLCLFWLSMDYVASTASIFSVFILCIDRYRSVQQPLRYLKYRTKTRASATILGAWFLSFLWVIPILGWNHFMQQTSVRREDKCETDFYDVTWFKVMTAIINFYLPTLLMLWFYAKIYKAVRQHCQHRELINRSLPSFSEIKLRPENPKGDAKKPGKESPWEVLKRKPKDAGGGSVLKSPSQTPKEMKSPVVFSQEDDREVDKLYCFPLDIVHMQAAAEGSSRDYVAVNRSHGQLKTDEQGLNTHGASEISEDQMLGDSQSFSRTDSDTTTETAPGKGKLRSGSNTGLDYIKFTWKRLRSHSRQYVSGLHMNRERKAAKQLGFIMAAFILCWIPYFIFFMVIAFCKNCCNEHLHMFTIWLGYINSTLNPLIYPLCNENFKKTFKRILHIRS
row,Structure (SMILES),Ki [nM]
1,"Cc1c(OC2CCN(CC3CCN(c4ccc(CC(=O)O)cc4)CC3)CC2)ccc(Cl)c1Cl [Example 33, [4-(4-{[4-(3,4-Dichloro-2-methylphenoxy)piperidin-1-yl]methyl}piperidin-1-yl)phenyl]acetic acid]",12.6
2,"COc1ccc(CC(=O)O)cc1N1CCC(CN2CCC(Oc3ccc(Cl)c(Cl)c3)CC2)CC1 [Example 23, [3-(4-{[4-(3,4-Dichlorophenoxy)piperidin-1-yl]methyl}piperidin-1-yl)-4-methoxyphenyl]acetic acid]",12.6
3,"C[C@@H](Oc1ccccc1N1CCC(CN2CCC(Oc3ccc(Cl)c(Cl)c3)CC2)CC1)C(=O)O [Example 28, (2R)-2-[2-(4-{[4-(3,4-Dichlorophenoxy)piperidin-1-yl]methyl}piperidin-1-yl)phenoxy]propanoic acid]",10
4,"Cc1c(OC2CCN(CC3CCN(c4cccc(O[C@@H](C)C(=O)O)c4)CC3)CC2)ccc(Cl)c1Cl [Example 44, (2S)-2-[3-(4-{[4-(3,4-dichloro-2-methylphenoxy)piperidin-1-yl]methyl}piperidin-1-yl)phenoxy]propanoic acid]",20
5,"O=C(O)COc1ccc(Cl)cc1N1CCC(CN2CCC(Oc3ccc(Cl)c(Cl)c3)CC2)CC1 [Example 39, (4-Chloro-2-{4-[4-(3,4-dichloro-phenoxy)-piperidin-1-ylmethyl]-piperidin-1-yl}-phenoxy)-acetic acid hydrochloride]",2
6,"O=C(O)COc1c(Cl)cccc1N1CCC(CN2CCC(Oc3ccc(Cl)c(Cl)c3)CC2)CC1 [Example 40, (2-chloro-6-{4-[4-(3,4-dichloro-phenoxy)-piperidin-1-ylmethyl]-piperidin-1-yl}-phenoxy)-acetic acid]",3.16
7,"CC(C)(Oc1ccccc1N1CCC(CN2CCC(Oc3ccc(Cl)c(Cl)c3)CC2)CC1)C(=O)O [Example 27, 2-[2-(4-{[4-(3,4-Dichlorophenoxy)piperidin-1-yl]methyl}piperidin-1-yl)phenoxy]-2-methylpropanoic acid]",31.6
8,"Cc1c(OC2CCN(CC3CCN(c4cccc(O[C@H](C)C(=O)O)c4)CC3)CC2)ccc(C#N)c1Cl [Example 37, (2R)-2-[3-(4-{[4-(3-Chloro-4-cyano-2-methylphenoxy)piperidin-1-yl]methyl}piperidin-1-yl)phenoxy]propanoic acid]",398
9,"C[C@@H](Oc1cccc(N2CCC(CN3CCC(Oc4ccc(Cl)c(Cl)c4)CC3)CC2)c1)C(=O)O [Example 30, (2R)-2-[3-(4-{[4-(3,4-Dichlorophenoxy)piperidin-1-yl]methyl}piperidin-1-yl)phenoxy]propanoic acid]",12.6
10,"C[C@H](Oc1ccccc1N1CCC(CN2CCC(Oc3ccc(Cl)c(Cl)c3)CC2)CC1)C(=O)O [Example 29, (2S)-2-[2-(4-{[4-(3,4-Dichlorophenoxy)piperidin-1-yl]methyl}piperidin-1-yl)phenoxy]propanoic acid]",12.6
